COc1cccc(-c2nn(-c3ccccc3)cc2/C=C/C(=O)c2nc3ccccc3[nH]2)c1
solubility (mole fraction)
Settings | in acetonitrile | in ethanol | in ethyl acetate | in methanol | in n-butanol | in n-pentanol | in n-propanol
298.15 K | 2.91e-05 | 7.24e-05 | 0.000241 | 2.71e-05 | 0.00017 | 0.000227 | 0.000126
303.15 K | 4.16e-05 | 8.5e-05 | 0.000256 | 3.15e-05 | 0.000185 | 0.000274 | 0.000145
308.15 K | 5.87e-05 | 0.000106 | 0.000274 | 3.63e-05 | 0.000211 | 0.000312 | 0.000166
313.15 K | 7.62e-05 | 0.000121 | 0.000292 | 4.12e-05 | 0.00023 | 0.000381 | 0.000187
318.15 K | 9.21e-05 | 0.000136 | 0.000317 | 4.62e-05 | 0.000258 | 0.000427 | 0.000206
323.15 K | 0.000111 | 0.000148 | 0.000336 | 5.15e-05 | 0.000285 | 0.000457 | 0.000231
328.15 K | 0.000122 | 0.000165 | 0.000365 | 5.81e-05 | 0.000311 | 0.000499 | 0.000245

COc1ccc(-c2nn(-c3ccccc3)cc2/C=C/C(=O)c2nc3ccccc3[nH]2)cc1
solubility (mole fraction)
Settings | in acetonitrile | in ethanol | in ethyl acetate | in methanol | in n-butanol | in n-pentanol | in n-propanol
298.15 K | 0.000165 | 0.000352 | 0.000809 | 0.000145 | 0.00133 | 0.00156 | 0.00049
303.15 K | 0.0002 | 0.000372 | 0.000826 | 0.000149 | 0.00136 | 0.00162 | 0.00052
308.15 K | 0.000227 | 0.000385 | 0.000846 | 0.000155 | 0.00138 | 0.00168 | 0.000541
313.15 K | 0.00025 | 0.000399 | 0.000868 | 0.00016 | 0.00142 | 0.00174 | 0.000565
318.15 K | 0.000282 | 0.00042 | 0.000886 | 0.000167 | 0.00145 | 0.00179 | 0.000586
323.15 K | 0.000301 | 0.00043 | 0.00091 | 0.00017 | 0.00149 | 0.00185 | 0.000615
328.15 K | 0.000329 | 0.000452 | 0.000935 | 0.000177 | 0.00151 | 0.00191 | 0.000628

O=C(/C=C/c1cn(-c2ccccc2)nc1-c1ccccc1)c1nc2ccccc2[nH]1
solubility (mole fraction)
Settings | in acetonitrile | in ethanol | in ethyl acetate | in methanol | in n-butanol | in n-pentanol | in n-propanol
298.15 K | 5.71e-05 | 8.48e-05 | 0.000159 | 5.54e-05 | 0.000248 | 0.000257 | 0.000135
303.15 K | 6.5e-05 | 9.4e-05 | 0.000195 | 6.53e-05 | 0.000275 | 0.000332 | 0.000152
308.15 K | 7.61e-05 | 0.000106 | 0.000243 | 8.08e-05 | 0.000299 | 0.000406 | 0.000179
313.15 K | 9.3e-05 | 0.000123 | 0.000312 | 8.83e-05 | 0.000335 | 0.000475 | 0.000189
318.15 K | 0.000102 | 0.000135 | 0.000362 | 9.87e-05 | 0.000374 | 0.000535 | 0.000215
323.15 K | 0.00012 | 0.000146 | 0.000403 | 0.000115 | 0.000425 | 0.000592 | 0.000226
328.15 K | 0.000132 | 0.00016 | 0.000463 | 0.000123 | 0.000465 | 0.000639 | 0.000255

O=C(/C=C/c1cn(-c2ccccc2)nc1-c1ccccc1Cl)c1nc2ccccc2[nH]1
solubility (mole fraction)
Settings | in acetonitrile | in ethanol | in ethyl acetate | in methanol | in n-butanol | in n-pentanol | in n-propanol
298.15 K | 1.78e-05 | 0.000105 | 0.00077 | 9.04e-05 | 0.000294 | 0.000354 | 0.000157
303.15 K | 6e-05 | 0.000125 | 0.00095 | 0.000116 | 0.00033 | 0.0004 | 0.000167
308.15 K | 0.000101 | 0.000145 | 0.00107 | 0.000133 | 0.000354 | 0.000448 | 0.000177
313.15 K | 0.00014 | 0.000157 | 0.0012 | 0.000149 | 0.0004 | 0.00051 | 0.000189
318.15 K | 0.000187 | 0.000179 | 0.00135 | 0.000168 | 0.000445 | 0.0006 | 0.000205
323.15 K | 0.00021 | 0.000195 | 0.00145 | 0.000187 | 0.0005 | 0.00069 | 0.00022
328.15 K | 0.000241 | 0.000217 | 0.00157 | 0.000209 | 0.000533 | 0.00074 | 0.000244

O=C(/C=C/c1cn(-c2ccccc2)nc1-c1ccc(Cl)cc1)c1nc2ccccc2[nH]1
solubility (mole fraction)
Settings | in acetonitrile | in ethanol | in ethyl acetate | in methanol | in n-butanol | in n-pentanol | in n-propanol
298.15 K | 0.000116 | 0.000102 | 0.000257 | 4.06e-05 | 0.00015 | 0.000253 | 8.35e-05
303.15 K | 0.000135 | 0.000113 | 0.00029 | 5.1e-05 | 0.000175 | 0.000275 | 0.000103
308.15 K | 0.000153 | 0.00012 | 0.000328 | 6.74e-05 | 0.000201 | 0.000304 | 0.000121
313.15 K | 0.000171 | 0.000132 | 0.000385 | 7.9e-05 | 0.000216 | 0.000354 | 0.000132
318.15 K | 0.000182 | 0.000148 | 0.000432 | 9.36e-05 | 0.00024 | 0.000387 | 0.00015
323.15 K | 0.000193 | 0.000155 | 0.000482 | 0.000105 | 0.000258 | 0.000423 | 0.000158
328.15 K | 0.000211 | 0.000172 | 0.000526 | 0.000117 | 0.000295 | 0.000442 | 0.000167

COc1ccc(-c2nn(-c3ccccc3)cc2/C=C/C(=O)c2nc3ccccc3[nH]2)cc1OC
solubility (mole fraction)
Settings | in acetonitrile | in ethanol | in ethyl acetate | in methanol | in n-butanol | in n-pentanol | in n-propanol
298.15 K | 0.000113 | 3.91e-05 | 0.000355 | 3.04e-05 | 0.00016 | 0.00031 | 0.000125
303.15 K | 0.000135 | 5e-05 | 0.000425 | 3.6e-05 | 0.000209 | 0.00033 | 0.00014
308.15 K | 0.000152 | 5.88e-05 | 0.000471 | 4.06e-05 | 0.000244 | 0.000354 | 0.00015
313.15 K | 0.00017 | 7.16e-05 | 0.00052 | 4.47e-05 | 0.00028 | 0.000375 | 0.000167
318.15 K | 0.000189 | 8.46e-05 | 0.000554 | 5.02e-05 | 0.000321 | 0.000395 | 0.000185
323.15 K | 0.00021 | 0.0001 | 0.00059 | 5.5e-05 | 0.00035 | 0.000412 | 0.0002
328.15 K | 0.00023 | 0.000111 | 0.000629 | 6.53e-05 | 0.00039 | 0.00043 | 0.00022

O=C(/C=C/c1cn(-c2ccccc2)nc1-c1cccc([N+](=O)[O-])c1)c1nc2ccccc2[nH]1
solubility (mole fraction)
Settings | in acetonitrile | in ethanol | in ethyl acetate | in methanol | in n-butanol | in n-pentanol | in n-propanol
298.15 K | 0.000103 | 5.53e-05 | 0.0013 | 4.04e-05 | 0.000202 | 0.000281 | 0.000115
303.15 K | 0.000123 | 6.2e-05 | 0.00149 | 4.85e-05 | 0.000236 | 0.000326 | 0.000135
308.15 K | 0.000148 | 7.01e-05 | 0.0017 | 5.5e-05 | 0.000279 | 0.000368 | 0.000164
313.15 K | 0.000163 | 8.42e-05 | 0.00194 | 5.9e-05 | 0.000324 | 0.000424 | 0.000175
318.15 K | 0.00019 | 9.46e-05 | 0.00217 | 6.59e-05 | 0.000359 | 0.000455 | 0.000206
323.15 K | 0.000216 | 0.000103 | 0.00244 | 7.4e-05 | 0.000402 | 0.000513 | 0.000226
328.15 K | 0.000232 | 0.000119 | 0.00277 | 8.21e-05 | 0.000445 | 0.000557 | 0.000251
